Tests used:
CCR7 = molecular target: T1, CCR7 (Homo sapiens, UniProt P32248); conditions: cited from earlier work
T1 construct: endogenous in cells
T1 sequence (P32248 25-378): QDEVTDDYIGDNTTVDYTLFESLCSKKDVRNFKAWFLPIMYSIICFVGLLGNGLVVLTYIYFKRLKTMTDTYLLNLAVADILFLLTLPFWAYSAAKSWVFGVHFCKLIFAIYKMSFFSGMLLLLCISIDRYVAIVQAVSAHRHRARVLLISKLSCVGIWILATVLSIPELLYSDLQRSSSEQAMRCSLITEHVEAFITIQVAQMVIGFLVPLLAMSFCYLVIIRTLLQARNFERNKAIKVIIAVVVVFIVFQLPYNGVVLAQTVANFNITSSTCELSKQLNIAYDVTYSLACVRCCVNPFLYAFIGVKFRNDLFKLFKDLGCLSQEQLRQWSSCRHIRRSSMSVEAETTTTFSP

[1] = system: granulocyte-macrophage (CFU-GM), erythroid (BFU-E) and multipotential (CFU-GEMM) progenitor cells; test: Progenitor/stem cell mobilization in mice after single subcutaneous injection; type: in vivo, C3H/HeJ mice
CCR1 = molecular target: T2, CCR1 (Homo sapiens, UniProt P32246); conditions: cited from earlier work
T2 construct: expressed in transfected cells; host or cells: HEK293F
T2 sequence (P32246 1-355): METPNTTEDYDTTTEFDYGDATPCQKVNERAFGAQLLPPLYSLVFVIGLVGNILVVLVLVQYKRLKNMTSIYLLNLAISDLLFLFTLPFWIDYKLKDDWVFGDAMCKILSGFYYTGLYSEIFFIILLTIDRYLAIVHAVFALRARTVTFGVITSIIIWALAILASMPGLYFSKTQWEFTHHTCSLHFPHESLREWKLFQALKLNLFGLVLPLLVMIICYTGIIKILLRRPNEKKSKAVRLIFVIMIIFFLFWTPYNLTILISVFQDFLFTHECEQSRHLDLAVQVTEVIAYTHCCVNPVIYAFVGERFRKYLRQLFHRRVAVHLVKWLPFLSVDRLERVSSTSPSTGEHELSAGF

[2] = 28-Day GLP oral (capsule) toxicity study in the Beagle dog with 14-day recovery; type: in vivo
Protocol: A 28-Day GLP oral (capsule) toxicology study was conducted with […]-001 in the male and female beagle dog, and hematology effects were observed, with […]-001 administered twice-daily (at least 7 hours apart) by oral capsule for 28 days. A subset of treated animals was evaluated after a 14-day recovery period. [table] [table]

CCR5 = molecular target: T3, CCR5 (Homo sapiens, UniProt P51681); conditions: cited from earlier work
T3 construct: expressed in transfected cells
T3 sequence (P51681 whole entry): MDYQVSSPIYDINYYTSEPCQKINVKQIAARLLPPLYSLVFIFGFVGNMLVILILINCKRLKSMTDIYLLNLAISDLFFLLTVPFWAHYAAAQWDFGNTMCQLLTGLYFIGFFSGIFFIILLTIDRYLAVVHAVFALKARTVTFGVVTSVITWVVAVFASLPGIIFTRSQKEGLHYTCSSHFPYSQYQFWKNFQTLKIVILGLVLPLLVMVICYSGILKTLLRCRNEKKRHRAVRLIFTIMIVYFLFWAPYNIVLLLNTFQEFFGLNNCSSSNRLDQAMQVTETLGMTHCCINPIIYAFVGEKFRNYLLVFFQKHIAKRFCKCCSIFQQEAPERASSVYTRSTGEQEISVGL

[3] = Clinical studies, oral administration to healthy volunteers and HIV patients
CXCR3 = molecular target: T4, CXCR3 (Homo sapiens, UniProt P49682); conditions: cited from earlier work
T4 construct: expressed in transfected cells
T4 sequence (P49682 1-368): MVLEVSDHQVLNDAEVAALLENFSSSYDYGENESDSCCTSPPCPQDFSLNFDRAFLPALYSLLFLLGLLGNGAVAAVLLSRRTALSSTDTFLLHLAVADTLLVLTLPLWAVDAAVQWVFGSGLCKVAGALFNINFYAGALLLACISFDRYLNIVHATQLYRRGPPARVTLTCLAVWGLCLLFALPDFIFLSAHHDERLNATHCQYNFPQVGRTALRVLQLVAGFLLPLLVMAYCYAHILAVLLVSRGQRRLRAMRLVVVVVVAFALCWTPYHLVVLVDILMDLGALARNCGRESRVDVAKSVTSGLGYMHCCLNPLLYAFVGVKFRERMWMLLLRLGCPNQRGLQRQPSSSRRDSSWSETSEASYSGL

CCR2b = molecular target: T5, CCR2b (Homo sapiens, UniProt P41597); conditions: cited from earlier work
T5 construct: expressed in transfected cells
T5 sequence (P41597 1-360 isoform P41597-2): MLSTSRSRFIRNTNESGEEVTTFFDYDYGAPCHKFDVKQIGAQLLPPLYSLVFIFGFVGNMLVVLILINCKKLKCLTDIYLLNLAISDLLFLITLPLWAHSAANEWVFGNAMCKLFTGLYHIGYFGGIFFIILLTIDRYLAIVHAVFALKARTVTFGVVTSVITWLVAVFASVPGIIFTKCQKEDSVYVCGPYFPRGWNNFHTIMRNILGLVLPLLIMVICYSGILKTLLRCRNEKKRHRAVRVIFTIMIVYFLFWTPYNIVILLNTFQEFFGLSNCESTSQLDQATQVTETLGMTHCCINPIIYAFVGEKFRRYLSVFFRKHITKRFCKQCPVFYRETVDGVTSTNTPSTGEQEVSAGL

[4] = F, 10 mg/kg/d, termination, †p < 0.05
[5] = F, 30 mg/kg/d, termination, †p < 0.05
[6] = F, 100 mg/kg/d, termination, †p < 0.05
[7] = M, 100 mg/kg/d, termination, †p < 0.05

For `NCCCCN(Cc1nc2ccccc2[nH]1)[C@H]1CCCc2cccnc21` [X4P-001], the IC50 (CCR7; CCR7, CCRF-CEM, MIP-3β/CCL19, read-out: IC50 AMD11070) is listed as over 50 µM, the “Inhibitory effect on MIP-3β mediated calcium flux (CCR7)” value (CCR7) is listed as “little or no inhibitory effect” and the “GEMM (CFU-GEMM), Mean” value ([1]; Table 7, progenitor cells per mL of blood, 1 hour post-injection, 1.5 mg/kg s.c.) is listed as 53.3. For the same molecule, the “BFU (BFU-E), Mean” value ([1]; Table 7, progenitor cells per mL of blood, 1 hour post-injection, 10 mg/kg s.c.) was 268.1, the “Nucleated Cellularity PBL-LD, Mean” value ([1]; Table 7 dose response, 1 hour post-injection, 20 mg/kg s.c.) was 9.62e+06 mL⁻¹ and the “BFU (BFU-E), Mean” value ([1]; Table 8, progenitor cells per mL of blood, 5 mg/kg s.c., @ - 30″ (0.5 h)) was 151.9. The “BFU (BFU-E), Mean” value ([1]; Table 8, progenitor cells per mL of blood, 5 mg/kg s.c., @ - 60″ (1 h)) was 144.3, the IC50 (CCR1; CCR1, HEK293F-CCR1, MIP-1α/CCL3, read-out: IC50 AMD11070) was over 50 µM and the “Inhibitory effect on MIP1α mediated calcium flux (CCR1)” value (CCR1) was “little or no inhibitory effect”. For the same molecule, the Coagulation ([2]; 10 mg/kg/d, termination) was “No changes”, the reticulocytes ([2]; 10 mg/kg/d, termination) was “No changes” and the Coagulation ([2]; 30 mg/kg/d, termination) was “No changes”. The reticulocytes ([2]; 30 mg/kg/d, termination) was “No changes”, the Coagulation ([2]; 100 mg/kg/d, termination) was “No changes” and the “lymphocytes (abs), incr” value ([2]; F, 10 mg/kg/d, termination) was “F incr 1.4x”. The “monocytes (abs), incr” value [2, 4] was “F incr 1.6x†”, the “neutrophils (abs), incr” value [2, 4] was “F incr 1.9x†” and the “lymphocytes (abs), incr” value [2, 5] was “F incr 1.6x†”. For the same molecule, the “monocytes (abs), incr” value [2, 5] was “F incr 1.9x†”, the “neutrophils (abs), incr” value [2, 5] was “F incr 2.3x†” and the “lymphocytes (abs), incr” value [2, 6] was “F incr 1.4x†”. The “monocytes (abs), incr” value [2, 6] was “F incr 2.4x†”, the “neutrophils (abs), incr” value [2, 6] was “F incr 2.8x†” and the “reticulocytes, decr” value [2, 6] was “F decr 0.24x†”. For the same molecule, the “lymphocytes (abs), incr” value ([2]; M, 10 mg/kg/d, termination) was “M incr 1.3x;”, the “monocytes (abs), incr” value ([2]; M, 10 mg/kg/d, termination) was “M incr 1.2x;” and the “neutrophils (abs), incr” value ([2]; M, 10 mg/kg/d, termination) was “M incr 1.2x;”. For the same molecule, the “lymphocytes (abs), incr” value ([2]; M, 30 mg/kg/d, termination) was “M incr 1.6x;”, the “monocytes (abs), incr” value ([2]; M, 30 mg/kg/d, termination) was “M incr 1.3x;” and the “neutrophils (abs), incr” value ([2]; M, 30 mg/kg/d, termination) was “M incr 1.2x;”. For the same molecule, the “neutrophils (abs), incr” value ([2]; M, 100 mg/kg/d, termination) was “M incr 1.8x;”, the “lymphocytes (abs), incr” value [2, 7] was “M incr 2.3x†;” and the “monocytes (abs), incr” value [2, 7] was “M incr 1.9x†;”. For the same molecule, the “All hematology results after the 14-day recovery period” value ([2]; only 100 mg/kg dose group evaluated) was “returned to within normal levels”, the IC50 (CCR5; CCR5, HEK293F-CCR5, RANTES/CCL5, read-out: IC50 AMD11070) was over 50 µM and the “Inhibitory effect on RANTES mediated calcium flux (CCR5)” value (CCR5) was “little or no inhibitory effect”. The “Pharmacodynamic activity, circulating white blood cells (WBCs)” value ([3]; healthy volunteers and HIV patients) was “dose- and concentration-related changes”, the “Increases in WBC counts” value ([3]; human subjects, dose-dependent, FIG. 9) was 2-3 × and the IC50 (CXCR3; CXCR3, HEK293F-CXCR3-Gαq15, IP-10/CXCL10, read-out: IC50 AMD11070) was over 50 µM. For the same molecule, the “Inhibitory effect on IP10 mediated calcium flux (CXCR3)” value (CXCR3) was “little or no inhibitory effect”, the IC50 (CCR2b; CCR2b, HEK293F-CCR2b, MCP-1/CCL2, read-out: IC50 AMD11070) was over 50 µM and the “Inhibitory effect on MCP-1 mediated calcium flux (CCR2b)” value (CCR2b) was “little or no inhibitory effect”.

From patent US11219621B2, “Methods for treating immunodeficiency disease” (X4 Pharmaceuticals, Inc., priority 2015, dated 2022)
